Measurements published in patent US7608603B2, “Substituted pyrazolo[3,4-D]pyrimidines as p38 MAP kinase inhibitors” (Roche Palo Alto LLC, priority 2005, dated 2009).
Structures can show the parent of a compound that is named as a salt.

How the values were obtained:
[1] = Pharmacokinetic parameters in rats after oral administration of the phosphate prodrug (Example 6); format: in vivo; details: for Cmax / AUC: male, Crl:WI(GLx/BRL/Han)IGS BR (Hanover-Wistar), po, rat plasma; for Cmax: phosphate prodrug given orally (gavage, aqueous suspension)
Excerpt: Male Crl:WI(GLx/BRL/Han)IGS BR (Hanover-Wistar) rats weighing 240-260 g were cannulated. Groups of three rats were used for each dose level of an experimental compound. One additional non-cannulated animal was included as vehicle control. Animals were allowed normal access to food and water throughout the experiment. The test substance phosphoric acid mono-{2-[3-(2-chloro-phenyl)-6-(2,4-difluoro-phenoxy)-1H-pyrazolo[3,4-d]pyrimidin-4-ylamino]-1-methyl-ethyl}ester was formulated as an aqueous suspension and a dose of 3 or 30 mg/kg (in 1-[3-(2-chloro-phenyl)-6-(2,4-difluoro-phenoxy)-1H-pyrazolo[3,4-d]pyrimidin-4-ylamino]-propan-2-ol equivalent) was administered orally through gavage. A blood sample (0.3 mL) was collected from the each treated rat at 0 (predose), 0.083, 0.25, 1, 2, 4, 6, and 8 hr after dose via the jugular cannula. At 24 hr after dosing, blood was collected from each treated rat via cardiac puncture. Blood was also collected from the untreated animal at 24 hr via cardiac puncture. Lithium heparin was added to the samples which were stored on ice during sampling procedure. The samples were spun in a refrigerated centrifuge at 4° C. as soon as possible and the plasma samples were stored −20° C. immediately after centrifugation and until analysis. The concentration of test compound was determined by HPLC-MS/MS. […] The prodrug phosphoric acid mono-{2-[3-(2-chloro-phenyl)-6-(2,4-difluoro-phenoxy)-1H-pyrazolo[3,4-d]pyrimidin-4-ylamino]-1-methyl-ethyl}ester was not detected in the rat plasma (at quantification limit of 0.0005 μg/mL) with the 3-mg/kg dose.

[2] = Pharmacokinetic parameters in rats after oral administration of the succinate prodrug (Example 7); format: in vivo; details: male, Crl:WI(GLx/BRL/Han)IGS BR (Hanover-Wistar), rat plasma; for Cmax: succinate prodrug given orally (gavage, aqueous suspension); for AUC: succinate prodrug given orally
Method: Male Crl:WI(GLx/BRL/Han)IGS BR (Hanover-Wistar) rats weighing 240-260 g were cannulated. Groups of three rats were used for each dose level of an experimental compound. The test substance succinic acid mono-[3-(2-chloro-phenyl)-6-(2,4-difluoro-phenoxy)-4-(2-hydroxy-2-methyl-propylamino)-pyrazolo[3,4-d]pyrimidin-1-ylmethyl]ester was formulated as an aqueous suspension, and a dose of 3 or 10 mg/kg (in 1-[3-(2-Chloro-phenyl)-6-(2,4-difluoro-phenoxy)-1H-pyrazolo[3,4-d]pyrimidin-4-ylamino]-2-methyl-propan-2-ol equivalent) was administered orally through gavage. A blood sample (0.3 mL) was collected from the each treated rat at 0 (predose), 0.083, 0.25, 1, 2, 4, 6, and 8 h after dose via the jugular cannula. At 24 h after dosing, blood was collected from each treated rat via cardiac puncture. Lithium heparin was added to the samples which were stored on ice during sampling procedure. The samples were spun in a refrigerated centrifuge at 4° C. as soon as possible and the plasma samples were stored −20° C. immediately after centrifugation and until analysis. The concentration of test compound was determined by HPLC-MS/MS.

p38 MAP kinase = target: T1, p38 MAP kinase (Homo sapiens, UniProt Q16539); test: p38 (MAP) kinase in vitro assay, transfer of γ-33P from ATP to Myelin Basic Protein; format: biochemical; details: phosphorylated recombinant p38 MAP kinase, MBP substrate
T1 construct: made in house; host or cells: E. coli (co-expressed with SEK-1 and MEKK)
T1 sequence (Q16539 whole entry): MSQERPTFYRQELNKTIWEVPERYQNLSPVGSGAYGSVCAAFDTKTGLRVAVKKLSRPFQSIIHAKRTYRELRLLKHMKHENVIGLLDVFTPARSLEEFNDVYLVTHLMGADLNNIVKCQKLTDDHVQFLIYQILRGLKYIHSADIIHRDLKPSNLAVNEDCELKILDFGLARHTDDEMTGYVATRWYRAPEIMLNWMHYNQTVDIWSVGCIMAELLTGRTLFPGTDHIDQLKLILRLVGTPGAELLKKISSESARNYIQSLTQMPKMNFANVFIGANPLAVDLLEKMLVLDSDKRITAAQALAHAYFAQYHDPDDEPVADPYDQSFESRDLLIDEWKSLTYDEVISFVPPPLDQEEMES
Method: The p38 MAP kinase inhibitory activity of compounds of this invention in vitro was determined by measuring the transfer of the γ-phosphate from γ-^33P-ATP by p-38 kinase to Myelin Basic Protein (MBP), using a minor modification of the method described in Ahn, et al., J. Biol. Chem. 266:4220-4227 (1991).
The phosphorylated form of the recombinant p38 MAP kinase was co-expressed with SEK-1 and MEKK in E. Coli (see, Khokhlatchev, et al., J. Biol. Chem. 272:11057-11062 (1997)) and then purified by affinity chromatography using a Nickel column.
The phosphorylated p38 MAP kinase was diluted in kinase buffer (20 mM 3-(N-morpholino)propanesulfonic acid, pH 7.2, 25 mM β-glycerol phosphate, 5 mM ethylene glycol-bis(beta-aminoethyl ether)-N,N,N′,N′-tetraacetic acid, 1 mM sodium ortho-vanadate, 1 mM dithiothreitol, 40 mM magnesium chloride). Test compound dissolved in DMSO or only DMSO (control) was added and the samples were incubated for 10 min at 30° C. The kinase reaction was initiated by the addition of a substrate cocktail containing MBP and γ-^33P-ATP. After incubating for an additional 20 min at 30° C., the reaction was terminated by adding 0.75% phosphoric acid. The phosphorylated MBP was then separated from the residual γ-^33P-ATP using a phosphocellulose membrane (Millipore, Bedfrod, Mass.) and quantitated using a scintillation counter (Packard, Meriden, Conn.).

[3] = phosphate prodrug given orally, 30 mg/kg in parent equivalent

| Structure (SMILES) | Cmax ([1]; 30 mg/kg in parent equivalent) | AUC [1, 3] | Cmax ([2]; 3 mg/kg in parent equivalent) | Cmax ([2]; 10 mg/kg in parent equivalent) | AUC ([2]; 3 mg/kg in parent equivalent) | AUC ([2]; 10 mg/kg in parent equivalent) | further results |
| --- | --- | --- | --- | --- | --- | --- | --- |
| C[C@@H](CNc1nc(Oc2ccc(F)cc2F)nc2[nH]nc(-c3ccccc3Cl)c12)OP(=O)(O)O [phosphoric acid mono-{2-[3-(2-chloro-phenyl)-6-(2,4-difluoro-phenoxy)-1H-pyrazolo[3,4-d]pyrimidin-4-ylamino]-1-methyl-ethyl}ester] | 214 ng/mL | 188 ng·h/mL | – | – | – | – | concentration in rat plasma (not detected at quantification limit) ([1]; phosphate prodrug given orally, 3 mg/kg dose): < 0.5 ng/mL |
| OCC(O)CNc1nc(Oc2ccc(F)cc2F)nc2[nH]nc(-c3ccccc3Cl)c12 (centres unmarked) [3-[3-(2-Chloro-phenyl)-6-(2,4-difluoro-phenoxy)-1H-pyrazolo[3,4-d]pyrimidin-4-ylamino]-propane-1,2-diol] | – | – | – | – | – | – | IC50 (p38 MAP kinase): 4 nM |
| C[C@@H](CNc1nc(Oc2ccc(F)cc2F)nc2[nH]nc(-c3ccccc3Cl)c12)OP(=O)(O)O (as salt: sodium) [phosphoric acid mono-{2-[3-(2-chloro-phenyl)-6-(2,4-difluoro-phenoxy)-1H-pyrazolo[3,4-d]pyrimidin-4-ylamino]-1-methyl-ethyl}ester] | – | – | – | – | – | – | melting point: > 300 °C |

The next lines start with results.

| Cmax ([1]; 30 mg/kg in parent equivalent) | AUC [1, 3] | Cmax ([2]; 3 mg/kg in parent equivalent) | Cmax ([2]; 10 mg/kg in parent equivalent) | AUC ([2]; 3 mg/kg in parent equivalent) | AUC ([2]; 10 mg/kg in parent equivalent) | Structure (SMILES) | further results |
| --- | --- | --- | --- | --- | --- | --- | --- |
| 9800 ng/mL | 124000 ng·h/mL | – | – | – | – | C[C@H](O)CNc1nc(Oc2ccc(F)cc2F)nc2[nH]nc(-c3ccccc3Cl)c12 [1-[3-(2-chloro-phenyl)-6-(2,4-difluoro-phenoxy)-1H-pyrazolo[3,4-d]pyrimidin-4-ylamino]-propan-2-ol] | Cmax ([1]; 3 mg/kg in parent equivalent): 1330 ng/mL; AUC ([1]; phosphate prodrug given orally, 3 mg/kg in parent equivalent): 12600 ng·h/mL |
| – | – | 1830 ng/mL | 9250 ng/mL | 6110 ng·h/mL | 20900 ng·h/mL | CC(C)(O)CNc1nc(Oc2ccc(F)cc2F)nc2c1c(-c1ccccc1Cl)nn2COC(=O)CCC(=O)O [Succinic acid mono-[3-(2-chloro-phenyl)-6-(2,4-difluoro-phenoxy)-4-(2-hydroxy-2-methyl-propylamino)-pyrazolo[3,4-d]pyrimidin-1-ylmethyl]ester] | – |
| – | – | 1340 ng/mL | 7050 ng/mL | 9270 ng·h/mL | 47400 ng·h/mL | CC(C)(O)CNc1nc(Oc2ccc(F)cc2F)nc2[nH]nc(-c3ccccc3Cl)c12 [1-[3-(2-Chloro-phenyl)-6-(2,4-difluoro-phenoxy)-1H-pyrazolo[3,4-d]pyrimidin-4-ylamino]-2-methyl-propan-2-ol] | – |
